Reference: patent publication US5952320A, “Macrocyclic inhibitors of matrix metalloproteinases and TNFα secretion” (Abbott Laboratories, priority 1997, dated 1999)
Like-named read-outs stand apart in the source and are kept apart here.

Biological target: T1, Recombinant truncated stromelysin (human sequence) (Homo sapiens, UniProt P08254)
T1 construct: made in house; host or cells: E. coli
Assay: Determination of Stromelysin Inhibition (cleavage of thiopeptide ester substrate, DTNB, 405 nm)
Format: biochemical
Protocol: The efficacy of the compounds of this invention as matrix metalloproteinase inhibitors was determined by measuring the inhibition of stromelysin. The inhibition of stromelysin by the compounds of this invention was determined as follows: Recombinant truncated stromelysin (human sequence) produced in E. coli was prepared by expression and purification of the protein as described by Ye et al., Biochemistry, 1992, 31, 11231-11235. The enzyme was assayed by its cleavage of the thiopeptide ester substrate Ac-Pro-Leu-Gly-[2-mercapto-4-methyl-pentanoyl]-Leu-Gly-OEt described by Weingarten and Feder, Anal. Biochem., 1985, 147, 437-440 (1985), as a substrate of vertebrate collagenase. The reported conditions were modified to allow assays to be carried out in a microtiter plate. Upon hydrolysis of the thioester bond, the released thiol group reacts rapidly with 5,5'-dithio-bis(2-nitrobenzoic acid) (DTNB), producing a yellow color which is measured by a microtiter plate reader set at 405 nm. The rates of cleavage of the substrate by stromelysin in the presence or absence of inhibitors are measured in a 30 min assay at ambient temperature. Solutions of the compounds in DMSO are prepared, and these are diluted at various concentrations into the assay buffer (50 mM MES/NaOH pH 6.5 with 10 mM CaCl2 and 0.2% Pluronic F-68), which is also used for dilution of the enzyme and substrate. The potency of the compounds [IC50 ] are calculated from the inhibition/inhibitor concentration data.

[1] = Inhibitory potencies against stromelysin, 30 min assay at ambient temperature, pH 6.5, read-out: IC50

T1 sequence (P08254 100-272 limits assumed): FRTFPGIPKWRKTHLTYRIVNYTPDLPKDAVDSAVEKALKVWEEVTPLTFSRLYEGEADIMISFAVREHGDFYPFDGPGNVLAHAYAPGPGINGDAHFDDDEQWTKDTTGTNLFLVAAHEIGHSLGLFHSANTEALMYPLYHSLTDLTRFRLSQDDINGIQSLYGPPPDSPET

Row | SMILES | IC50 [1] [nM] | IC50 [nM]
1 | CC(C)C[C@H]1C(=O)N[C@H](C(=O)Nc2ccccn2)Cc2ccc(cc2)OCCCC[C@@H]1C(=O)NO [Example 6] | 2.6 | –
2 | CNC(=O)[C@@H]1Cc2ccc(cc2)OCCC[C@H](C(=O)NO)[C@@H](CC(C)C)C(=O)N1 [Example 10] | 7.8 | –
3 | CC(C)C[C@H]1C(=O)N[C@H](C(=O)N2CCOCC2)Cc2ccc(cc2)OCCCC[C@@H]1C(=O)NO [Example 5] | 9.3 | –
4 | CC(C)C[C@H]1C(=O)N[C@H](C(=O)NCCc2ccc(S(N)(=O)=O)cc2)Cc2ccc(cc2)OCCCC[C@@H]1C(=O)NO [Example 1] | 6.9 | –
5 | CNC(=O)[C@@H]1Cc2ccc(cc2)/C=C\CCCCC(C(=O)NO)[C@@H](CC(C)C)C(=O)N1 (stereo partly shown) [Example 13] | 2.4 | –
6 | CC(C)C[C@H]1C(=O)N[C@H](C(=O)O)Cc2ccc(cc2)OCCCCC[C@@H]1C(=O)NO [Example 21] | – | 39
7 | CC(C)C[C@H]1C(=O)N[C@H](c2nc3ccccc3[nH]2)Cc2ccc(cc2)OCCCC[C@@H]1C(=O)NO [Example 7] | 3.6 | –
8 | CNC(=O)[C@@H]1Cc2ccc(cc2)OCCCCC[C@H](C(=O)NO)[C@@H](CC(C)C)C(=O)N1 [Example 11] | 6.1 | –
9 | CC(C)C[C@H]1C(=O)N[C@H](C(=O)NCCc2ccccc2)Cc2ccc(cc2)OCCCC[C@@H]1C(=O)NO [Example 2] | 7.2 | –
10 | CC(C)C[C@H]1C(=O)N[C@H](C(=O)NC2CC2)Cc2ccc(cc2)OCCCC[C@@H]1C(=O)NO [Example 3] | 5.8 | –
11 | CNC(=O)[C@@H]1Cc2ccc(cc2)OCCCC[C@@H](C(=O)NO)[C@@H](CC(C)C)C(=O)N1 [8 syn] | 570 | –
12 | CC(C)C[C@H]1C(=O)N[C@H](C(=O)Nc2ccccc2)Cc2ccc(cc2)OCCCC[C@@H]1C(=O)NO [Example 4] | 2.4 | –
13 | CNC(=O)[C@@H]1Cc2ccc(cc2)OCCCCCC[C@H](C(=O)NO)[C@@H](CC(C)C)C(=O)N1 [Example 12] | 12 | –
14 | CNC(=O)[C@@H]1Cc2ccc(cc2)OCCC[C@H](C(=O)O)[C@@H](CC(C)C)C(=O)N1 [Example 9] | 2100 | –
15 | Cc1ccc(CCC[C@H]2C(=O)N[C@H](C(=O)O)Cc3ccc(cc3)OCCCC[C@@H]2C(=O)NO)cc1 [Example 32] | – | 6.7
16 | CNC(=O)[C@@H]1Cc2ccc(cc2)OCCCC[C@H](C(=O)NO)[C@@H](CC(C)C)C(=O)N1 [8 anti] | 3.9 | –
17 | COC(=O)[C@@H]1Cc2ccc(cc2)OCCCCC[C@H](C(=O)NO)[C@@H](CC(C)C)C(=O)N1 [Example 26] | – | 27
18 | CC(C)C[C@H]1C(=O)N[C@H](C(=O)c2ccccc2)Cc2ccc(cc2)OCCCCC[C@@H]1C(=O)NO [Example 14] | 2.7 | –

Second part, led by results:

Row | IC50 [1] [nM] | SMILES | IC50 [nM]
19 | 20 | CNC(=O)[C@@H]1Cc2ccc(cc2)NCCCCC[C@H](C(=O)NO)[C@@H](CC(C)C)C(=O)N1 [Example 19] | –
20 | 44 | CC(C)C[C@H]1C(=O)N[C@H](C(=O)N2CCC[C@H]2C(=O)O)Cc2ccc(cc2)OCCCCC[C@@H]1C(=O)NO [Example 25] | –
21 | 8.9 | CC(C)C[C@H]1C(=O)N[C@H](C(=O)N2CCC[C@H]2C(=O)OCc2ccccc2)Cc2ccc(cc2)OCCCCC[C@@H]1C(=O)NO [Example 24] | –
22 | 23 | CNC(=O)[C@@H]1Cc2ccc(cc2)NC(=O)CCCC[C@H](C(=O)NO)[C@@H](CC(C)C)C(=O)N1 [Example 16] | –
23 | 1.5 | CCCc1ccc(CC[C@H]2C(=O)N[C@H](C(=O)NC)Cc3ccc(cc3)OCCCC[C@@H]2C(=O)NO)cc1 [Example 34] | –
24 | 26 | CNC(=O)[C@H]1NC(=O)[C@H](CC(C)C)[C@@H](C(=O)NO)CCCCCOc2ccc1cc2 [Example 41] | –
25 | 2.9 | CNC(=O)[C@@H]1Cc2ccc(cc2)OCCCCC[C@H](C(=O)NO)[C@@H](CCCc2ccc(C)cc2)C(=O)N1 [Example 31] | –
26 | 92 | CC(C)C[C@H]1C(=O)N[C@H](C(=O)OCc2ccccc2)Cc2ccc(cc2)OCCCCC[C@@H]1C(=O)NO [Example 20] | –
27 | 7.2 | CC(C)C[C@H]1C(=O)N[C@H](C(=O)c2ccc[nH]2)Cc2ccc(cc2)OCCCCC[C@@H]1C(=O)NO [Example 15] | –
28 | 0.56 | Cc1ccc(CCC[C@H]2C(=O)N[C@H](C(=O)NCCN(C)C)Cc3ccc(cc3)OCCCC[C@@H]2C(=O)NO)cc1 [Example 38] | –
29 | 0.61 | CNC(=O)[C@@H]1Cc2ccc(cc2)N(C(=O)OCc2ccccc2)CCCCC[C@H](C(=O)NO)[C@@H](CC(C)C)C(=O)N1 [Example 18] | –
30 | 20 | CNC(=O)[C@@H]1Cc2ccc(cc2)OCCCCC[C@H](C(=O)O)[C@@H](CCCc2ccc(C)cc2)C(=O)N1 [Example 30] | –
31 | 8.1 | CC(C)C[C@H]1C(=O)N[C@H](c2nc(-c3ccccc3)c[nH]2)Cc2ccc(cc2)OCCCCC[C@@H]1C(=O)NO [Example 23] | –
